Assay results: patent US12365946B2, “Compositions and methods for the diagnosis and treatment of lymphatic system disorders” (THE CHILDREN'S HOSPITAL OF PHILADELPHIA, priority 2018, dated 2025)

Assays:
MM cell lines = settings: units printed inside the range; cited from earlier work
[1] = system: ERK activation/phosphorylation in cells expressing WT and mutant BRAF or PTPN11; assay: pERK levels in Ea.hy926 cells expressing WT and mutant BRAF or PTPN11, MEK inhibitor titration; assay type: cell-based, human; settings: cells expressing WT and mutant BRAF or PTPN11, FIGS. 4 and 5
Text: A cellular model for studying the effects of potential ERK-activating mutations was developed. We have retrovirally expressed wild-type and mutant versions of proteins in the cell line Ea.hy926. The Ea.hy926 cell line is a fusion of human umbilical vein endothelial cells with a […] cell line. It is immortalized and retains some characteristics of endothelial cells.
In an effort to identify inhibitors with greater therapeutic efficacy, we have treated cells expressing WT and mutant BRAF or PTPN11 with various MEK inhibitors. […] BRAF F486S consistently induces ERK activation over WT levels, although the specific fold increase varies from gel to gel.

[2] = system: zebrafish larvae overexpressing KRAS-G12D mutant in lymphatics; assay: Zebrafish model overexpressing KRAS-G12D in lymphatics; assay type: in vivo; settings: FIG. 19
[3] = system: HDLECs expressing ARAF mutation S214P; assay: Immunofluorescence staining and western blotting of HDLECs expressing ARAF-S214P; assay type: cell-based, human; settings: for biochemical and morphological reversal of the effects induced by the ARAF mutation / cell morphological differences induced by ARAF-S214P: HDLECs; for VE-cadherin accumulation at the cell membrane / levels of pERK: HDLECs expressing ARAF-S214P
Text: We developed a cellular model to better understand and study the effects of potential ERK-activating mutations was developed by using primary lymphatic endothelial cells instead of established cell lines to capture the characteristics of mutations in the disease relevant cell type. We have retrovirally expressed wild-type and mutant versions of proteins in the human dermal lymphatic endothelial cells (HDLECs).
The ARAF sequence, from pCDNA3.1-F2S2-ARAF-WT or -S214P constructs as previously indicated, was cut with BamHI/XhoI and introduced into the BglII/XhoI sites of a modified version of the pMSCV plasmid that contains aminoterminal FLAG and HA tags. Viral production was performed using Fugene, with 8 μg of total DNA (pMSCV-ARAF-WT or -S214P together with envelope and packaging plasmids) and 18 μl of the transfection reagent in HEK293T. After 72 h, viral supernatant was collected and filtered. HDLECs were infected by replacing the cell culture medium with the viral supernatant, supplemented with 8 μg ml^−1 Polybrene and filtered through a 0.45 μm filter. Cells were spinfected at 650 g for 90 min, and subsequently cultured for 6 h at which point the viral supernatant was replaced by standard culture medium. Transduced HDLECs were cultured for 48 h before use in experiments. Transduction efficiencies observed by HA staining were between 40% and 60%.
Round (12 mm) coverslips (VWR) were coated with 0.1% gelatin in water for 10 min in 24-well plates (Corning), and then air-dried for 15 min. […] Cells were washed in warm serum-free Dulbecco's modified Eagle's medium and fixed in 4% paraformaldehyde. Fixed cells were washed twice with PBS and twice with 0.1% BSA in PBS. Cells were permeablized and blocked by incubation with 10% normal donkey serum (Jackson Immunoresearch) and 0.3% Triton X-100 (Sigma Aldrich) in PBS. VE-cadherin antibody (Thermo Fisher Scientific) was diluted (final concentration: 2 μg ml^−1) in 0.01% normal donkey serum, 0.1% BSA and 0.3% Triton X-100 in PBS, and staining was performed for 1 h. Coverslips were washed twice with 0.1% BSA in PBS. Goat-anti-rabbit Alexa546 (Thermo Fisher Scientific; final concentration: 8 μg ml-1) and phalloidin Alexa350 (Thermo Fisher Scientific; final concentration: 5 units ml-1) were diluted in 0.01% normal donkey serum, 0.1% BSA and 0.3% Triton X-100 in PBS, and staining was performed for 1 h. When used, HA-Tag (6E2) mouse antibody (cat. no. 2367, Cell Signaling Technology) was diluted 1:100 in 0.1% BSA and 0.3% Triton X-100 in PBS, and staining was performed for 1 h. Coverslips were washed twice with 0.1% BSA in PBS and twice with PBS. Coverslips were dipped in water to remove residual salts, and mounted to slides using Prolong Gold antifade reagent (Thermo Fisher Scientific). Image acquisition was performed on a Leica DM6000 motorized upright microscope with a Photometrics HQ2 high-resolution monochrome CCD (charge-coupled device) camera using LAS AF software (Leica Microsystems). Z-stacks were acquired at ×10 magnification. Images were further processed in the Fiji software package42. Brightness and contrast adjustments were made. Identical brightness and contrast settings were applied to all images. Fluorescence values were measured in regions of interest (ROIs) drawn to contain entire individual cells, or in ROIs drawn to contain the entire cell body but exclude the cell-cell junction. From those measured values, a value for the plasma membrane was derived (total cell-intracellular), and the ratio of plasma membrane to intracellular values was derived and plotted. Additionally, the length and width of cells were measured with the line tool and ROI manager. For both analyses, five clearly ARAF-expressing cells, as determined by HA staining, were analyzed per ×10 field. Five ×10 fields were acquired per condition per experiment. Experiments were conducted with cells from 3 independent thaws and transductions of HDLECs, for a total of 75 cells per condition. […]

mTOR = mTOR (Homo sapiens, UniProt P42345); settings: cell-free assays; cited from earlier work
[4] = system: Abl1, AKT3, c-RAF, CamK1, CDK2, c-Met; settings: cited from earlier work

## O=C(NC[C@H](O)CO)c1ccncc1Nc1ccc(I)cc1F [Pimasertib (AS-703026), Pimasertib]
MM cell lines
  IC50: 5 to 2000 nM
[1]
  pERK levels, titration curves: reducing pERK levels in cells in a dose dependent manner
[2]
  disorganized lymphatic branching: improvement
  edema: decrease
[3]
  biochemical and morphological reversal of the effects induced by the ARAF mutation: reversal
  cell morphological differences induced by ARAF-S214P: rescued
  VE-cadherin accumulation at the cell membrane: increased
  levels of pERK: reduced

## CO[C@H]1C[C@@H]2CC[C@@H](C)[C@@](O)(O2)C(=O)C(=O)N2CCCC[C@H]2C(=O)O[C@H]([C@H](C)C[C@@H]2CC[C@@H](OCCO)[C@H](OC)C2)CC(=O)[C@H](C)/C=C(\C)[C@@H](O)[C@@H](OC)C(=O)[C@H](C)C[C@H](C)/C=C/C=C/C=C/1C [Everolimus (RAD001), Everolimus]
mTOR
  IC50: 1.6 to 2.4 nM

## Cn1c(=O)c(F)c(Nc2ccc(I)cc2F)c2c(=O)n(C[C@@H](O)CO)cnc21 [TAK-733]
[2]
  disorganized lymphatic branching: improvement
  edema: decrease
[3]
  biochemical and morphological reversal of the effects induced by the ARAF mutation: reversal
  cell morphological differences induced by ARAF-S214P: rescued
  VE-cadherin accumulation at the cell membrane: increased
  levels of pERK: reduced
[4]
  activity to Abl1, AKT3, c-RAF, CamK1, CDK2, c-Met, etc.: inactive to Abl1, AKT3, c-RAF,
